According to patent publication US20190345536A1, “DETECTION METHOD FOR CHROMOSOMAL ABNORMALITIES AND METHOD FOR EVALUATING INDUCIBILITY” (Sumitomo Chemical Company, Limited, priority 2016, published 2019):
Read-outs that look alike come from different tables or passages of the source.

Tests used:
[1] = tested on: human iPS cell-derived T lymphocyte
[2] = tested on: human iPS cell-derived T lymphocyte; experiment: In vitro comet assay using human iPS cell-derived T lymphocyte (Example 6); assay type: cell-based
Description: As human iPS cell-derived T lymphocyte, redifferentiated T lymphocyte derived from human iPS cell line “2” described in Example 1(1) was used. […] A test substance was used at the treatment dose (final concentration in medium) described in Table 9. For the treatment, a test substance was dissolved in PBS at a 100-fold concentration of the final concentration in the medium for addition at 1% (v/v). A test substance was treated according to the process described in (4). […] Each well was washed twice with 1 mL of PBS, redifferentiated T lymphocytes derived from human iPS cell line described in (1) were suspended in Rh-medium at a cell density of 2.0×10^6 cells/mL and added to each well. After about 13 hr of culture, the total amount of the cell suspension was recovered by pipetting. The cell suspension was diluted with Rh-5 medium to a cell density of 2.0×10^5 cells/mL and reseeded in a 24 well plate not coated with the antibody at 1 mL per well, and culture was continued. Treatments with EMS and MAN were performed according to the method described below. That is, after about 24 hr from the reseeding in (3), a solution (10 μL) obtained by dissolving a test substance in PBS at a 100-fold concentration of the final concentration described in Table 9 was further added and the cells were treated for 4 hr. […] On completion of the additional culture, a part of the cell suspension was separated and the number of the cells was measured using a counting chamber. […] The prepared specimen was stained for nucleic acid using SYBR (registered trade mark) Gold, and observed under a fluorescence microscope at 200-fold magnification. 75 nuclei per specimen and 150 nuclei in two specimens per condition were imaged, % tail DNA was calculated using an image analyzer Comet Assay IV, and DNA damaging activity was determined. The % tail DNA was calculated as a percentage of the fluorescence brightness of the tail to the fluorescence brightness of the whole cell nucleus. […]

[3] = tested on: human iPS cell-derived T lymphocyte; experiment: In vitro chromosomal aberration test using human iPS cell-derived T lymphocyte (Example 5); assay type: cell-based
Description: As human iPS cell-derived T lymphocyte, redifferentiated T lymphocyte derived from human iPS cell line “2” described in Example 1(1) was used. […] A test substance was used at the treatment dose (final concentration in medium) described in Table 7. For the treatment, a test substance was dissolved in PBS at a 100-fold concentration of the final concentration in the medium for addition at 1% (v/v). Treatment with a test substance was performed according to the process described in (4). […] After about 14 hr of culture, the total amount of the cell suspension was recovered by pipetting. The cell suspension was diluted with Rh-5 medium to a cell density of 2.0×10^5 cells/mL and reseeded in a 12 well plate not coated with the antibody at 2 mL per well, and culture was continued. Treatments with MMC, EMS and MAN were performed according to the method described below. That is, after about 24 hr from the reseeding in (3), a solution (20 μL) obtained by dissolving a test substance in PBS at a 100-fold concentration of the final concentration described in Table 5 was further added and the cells were treated for 27 hr. Different from a test substance treatment group, PBS (20 μL) was added and a similar treatment was performed for 27 hr to prepare a negative control group. About 2 hr before completion of the treatment, KaryoMAX (registered trade mark) Colcemid™ Solution in HBSS (Life technologies) (20 μL) was added to the well (final concentration in medium: 0.1 μg/mL) to discontinue the cell cycle, and cells in mitotic metaphase were enriched. At the time of start of the test substance treatment, a part of the cell suspension of the negative control group was separated and the number of the cells was measured using a counting chamber. […] All remaining cell suspension was collected in a centrifuge tube and PBS was added to a total volume of 5 mL, after which the mixture was centrifuged (1000 rpm, 5 min). The supernatant was removed, 75 mM KCl heated to 37° C. was added and a hypotonic treatment was performed for 5 min. To the cell suspension after the hypotonicity was added 1/5 volume of a fixation solution (methanol:glacial acetic acid=3:1), and the cells were semi-fixed and centrifuged (4° C., 1000 rpm, 3 min). After centrifugation, the supernatant was substituted with a fresh fixation solution, and the cells were fixed and centrifuged (4° C., 1000 rpm, 3 min). The operation was repeated 3 times, and the cells were sufficiently fixed and centrifuged again (4° C., 1000 rpm, 3 min). The cells were suspended in a small amount of a fixation solution. […] Chromosomal abnormalities were classified into chromatid break, chromosome break, chromatid exchange, chromosome exchange, and other structural abnormalities and counted. […]

[4] = tested on: human iPS cell-derived T lymphocyte; experiment: Proliferation ability of human iPS cell-derived T lymphocyte by various proliferation stimulation factors (ATP amount, CellTiter-Glo; Comparative Example 1); assay type: cell-based
[5] = from known documents (Kirkland 2016; Lasne 1984; Aardema 2006); cited from earlier work
[6] = from known documents (Kirkland 2016; Lasne 1984); cited from earlier work
[7] = from known documents (Kirkland 2016; Lasne 1984); cited from earlier work; remark: listed apart in the source
[8] = tested on: human iPS cell-derived T lymphocyte; experiment: Division kinetics of human iPS cell-derived T lymphocyte stimulated with PHA (CytoB, CBPI; Comparative Example 2); assay type: cell-based; details: CytoB 24 hr
[9] = tested on: human peripheral blood-derived mononuclear cells PBMC (feeder cell, 35Gy X-ray); experiment: Division kinetics of feeder cells alone under PHA stimulation (comparison control, Comparative Example 2); assay type: cell-based; details: feeder cell only, 5 μg/mL PHA, CytoB 24 hr
[10] = iPS cell line 2, 27 hr treatment, doses of Table 7, 300 metaphase cells, Fisher's exact test
[11] = proliferation stimulation for 66 hr
[12] = absence of feeder cells, 3 μg/mL PHA, 426 cells observed
[13] = coculture with feeder cells, 5 μg/mL PHA, 500 cells observed

Molecule: O=P1(N(CCCl)CCCl)NCCCO1 (centres unmarked) [CPA, cyclophosphamide monohydrate]
- judgment result obtained in this Example (in vitro micronucleus test) [1]: positive

Molecule: CCOS(C)(=O)=O [EMS, ethyl methanesulfonate]
- judgment result obtained in this Example (in vitro micronucleus test) [1]: positive
- judgment result obtained in this Example (in vitro comet assay) [2]: positive
- judgment result obtained in this Example (in vitro chromosomal aberration test) [3]: positive

Molecule: C[C@H](CCC(=O)O)C[C@H](C)C[C@H](C)C(=O)/C=C(\O)[C@H](C)C[C@H](C)C/C=C/[C@@H](C)[C@@H](O)[C@@H](C)[C@@H](O)C[C@@H]1CC[C@@](C)([C@H]2CC[C@@](C)([C@@H](C)O)O2)O1 [Ionomycin]
- proliferation of human iPS cell-derived T lymphocyte by proliferation stimulation [4]: does not proliferate

Molecule: OC[C@@H](O)[C@@H](O)[C@H](O)[C@H](O)CO [MAN, D(−)-mannitol]
- increase in frequency of micronucleus [1]: no statistically significant increase
- judgment result obtained in this Example (in vitro micronucleus test) [1]: negative
- increase in % tail DNA ([2]; all doses (FIG. 14)): no statistically significant increase
- judgment result obtained in this Example (in vitro comet assay) ([2]; iPS cell line 2, 4 hr treatment, doses of Table 9, % tail DNA, Dunnett's test): negative
- increase in frequency of chromosomal aberration ([3]; all doses (FIG. 12)): no statistically significant increase
- judgment result obtained in this Example (in vitro chromosomal aberration test) [3, 10]: negative
- judgment result expected from known information (in vitro micronucleus test) [5]: negative
- judgment result expected from known information (in vitro chromosomal aberration test) [6]: negative
- judgment result expected from known information (in vitro comet assay) [7]: negative

Molecule: CO[C@@]12[C@H](COC(N)=O)C3=C(C(=O)C(C)=C(N)C3=O)N1C[C@@H]1N[C@@H]12 [MMC, mitomycin C]
- judgment result obtained in this Example (in vitro micronucleus test) [1]: positive
- judgment result obtained in this Example (in vitro chromosomal aberration test) [3, 10]: positive
- judgment result expected from known information (in vitro chromosomal aberration test) [6]: positive

Molecule: CCCCCCCCCCCCCC(=O)O[C@@H]1[C@@H](C)[C@@]2(O)[C@@H](C=C(CO)C[C@]3(O)C(=O)C(C)=C[C@@H]23)[C@@H]2C(C)(C)[C@]12OC(C)=O [PMA, phorbol 12-myristate 13-acetate]
- luminescent signal (count) [4]: 5784 count
- proliferation of human iPS cell-derived T lymphocyte by proliferation stimulation [4]: does not proliferate
- proliferation rate [4]: 4.5%

Molecule: Concanavalin A [Con A]
- luminescent signal (count) ([4]; 5 μg/mL Con A, 66 hr, background subtracted): 10064 count
- proliferation rate ([4]; 5 μg/mL Con A, 66 hr, percentage of signal at seeding): 7.8%
- proliferation of human iPS cell-derived T lymphocyte by proliferation stimulation [4, 11]: does not proliferate

Molecule: bleomycin sulfate [BLM]
- judgment result obtained in this Example (in vitro micronucleus test) [1]: positive

Molecule: phytohemagglutinin [PHA]
- CBPI ([8]; absence of feeder cells, 3 μg/mL PHA): 1.39
- binucleated cell number [8, 12]: 160
- mononucleated cell number [8, 12]: 262
- multinucleated cell number [8, 12]: 4
- CBPI ([8]; coculture with feeder cells, 5 μg/mL PHA): 1.15
- binucleated cell number [8, 13]: 71
- mononucleated cell number [8, 13]: 426
- multinucleated cell number [8, 13]: 3
- luminescent signal (count) ([4]; 1 μg/mL PHA, 66 hr, background subtracted): 10984 count
- proliferation rate ([4]; 1 μg/mL PHA, 66 hr, percentage of signal at seeding): 8.5%
- luminescent signal (count) ([4]; 5 μg/mL PHA, 66 hr, background subtracted): 15024 count
- proliferation rate ([4]; 5 μg/mL PHA, 66 hr, percentage of signal at seeding): 11.7%
- proliferation of human iPS cell-derived T lymphocyte by proliferation stimulation [4, 11]: does not proliferate
- CBPI [9]: 1.03
- binucleated cell number ([9]; 500 cells observed): 11
- mononucleated cell number ([9]; 500 cells observed): 488
- multinucleated cell number ([9]; 500 cells observed): 1
